Test results published in patent publication US20160324201A1, “SWEETENER COMPOSITION FOR ALLEVIATING DIABETES, CONTAINING SLOWLY DIGESTIBLE INGREDIENT” (CJ CHEILJEDANG CORPORATION, priority 2011, published 2016).

How the values were obtained:
[1] = Area under the curve of blood glucose (G-AUC) after meal and coffee containing the sweetener composition; assay type: in vivo, human
Protocol: (§1) The sweetener composition intake was conducted by providing subjects with an identical meal and then allowing them to drink coffee containing the sweetener composition.
(§2) In order to measure changes in blood glucose after the meal, blood glucose level before meal was checked, followed by providing the subjects with the meal and then coffee was given. Blood glucose was measured for 2 hours at intervals of 30 minutes.

[2] = Changes in blood glucose after an identical meal and coffee containing the sweetener composition; assay type: in vivo, human; conditions: for Post-meal increase in blood glucose: result in words
Protocol: (1) Preparation of Test Specimen for Measuring Blood Glucose and Method of Intake
as §1
(2) Measurement of Changes in Blood Glucose Levels
as §2

[3] = 0 min (before meal), normal subjects, five males and five females
[4] = 30 min after meal and coffee, * = p < 0.01 or less vs Comparative Example 1 (sugar)
[5] = 60 min after meal and coffee, * = p < 0.01 or less vs Comparative Example 1 (sugar)
[6] = 90 min after meal and coffee, * = p < 0.01 or less vs Comparative Example 1 (sugar)

Row | Structure (SMILES) | G-AUC ([1]; to 30 min) | G-AUC ([1]; to 60 min) | G-AUC ([1]; to 90 min) | G-AUC ([1]; to 120 min) | Blood glucose [2, 3] | Blood glucose [2, 4] | Blood glucose [2, 5] | Blood glucose [2, 6] | Blood glucose ([2]; 120 min after meal and coffee) | Post-meal increase in blood glucose [2]
1 | OC[C@@H](O)[C@@H](O)CO [Comparative Example 2, Erythritol] | 3449 mg·min/dL | 7329 mg·min/dL | 10619 mg·min/dL | 13542 mg·min/dL | 92.8 mg/dL | 137.1 mg/dL | 121.6 mg/dL | 97.7 mg/dL | 97.2 mg/dL | increase in blood glucose due to the meal only
2 | O=C(CO)[C@H](O)[C@H](O)[C@H](O)CO [Comparative Example 3, D-psicose] | 3236 mg·min/dL | 6803 mg·min/dL | 9917 mg·min/dL | 12725 mg·min/dL | 92.4 mg/dL | 123.3 mg/dL | 114.5 mg/dL | 93.1 mg/dL | 94.1 mg/dL | lowering increase in blood glucose after the meal
3 | OC[C@H]1O[C@@](CO)(O[C@H]2O[C@H](CO)[C@@H](O)[C@H](O)[C@H]2O)[C@@H](O)[C@@H]1O [Comparative Example 1, Sugar] | 3483 mg·min/dL | 7425 mg·min/dL | 10758 mg·min/dL | 13686 mg·min/dL | 93.1 mg/dL | 139.1 mg/dL | 123.7 mg/dL | 98.5 mg/dL | 96.7 mg/dL | highest increase in blood glucose
